Experimental data taken from a melting point compilation (Tetko et al.; mined from patent text by program, amines drawn as free bases though some values may be those of a salt).

SMILES	melting point
CC(C)N1CC2(COc3ccc([N+](=O)[O-])cc3OC2)OC1=O (centres undefined)	140 to 144 °C
O=c1oc(CO)nn1Cc1ccccc1	54 °C
CCN(CC)CCNC(=O)c1cc(I)cc2c(Cl)ccnc12	76 to 78 °C
O=C1c2cccc3cc4ccccc4c(c23)C(=O)N1CCNCCCCCNCCN1C(=O)c2cccc3cc4ccccc4c(c23)C1=O	122 °C
Nc1ccc2oc3c(c2c1)CCC3	86.5 to 88.5 °C
CN1CCN(c2nc(N)c3cc(Cl)ccc3n2)CC1	176 to 178 °C
CC1=C(NC=O)C(C)C(C)(C(C)C)C2=C1CC(C)(CI)O2 (centres undefined)	145 to 147 °C
O=C(N[C@H]1CC[C@H](CCN2CCC(c3cccc4c3CCO4)CC2)CC1)c1ccc(C(F)(F)F)cc1	228 °C
N#CC(=CO)c1ccc(Cl)cc1Cl	162 to 163 °C
O=C(Nc1ccccc1)C(=O)c1c2n(c3ccccc13)CCNCC2	157 to 160 °C
CN(C)CCOC(c1ccccc1)c1ccc(C(=O)NCCCCn2cnc3c(N)nc4ccccc4c32)cc1 (centres undefined)	110 to 114 °C
COC(=O)c1sc(C)c(Br)c1OC(=S)N(C)C	152 to 154 °C
O=C(NCCCl)Oc1ccc(Cl)c2cccnc12	146 °C
O=C(O)c1cccc2c1CCc1cccc(O)c1S2	171 to 173 °C
O=C(O)c1ccc(Oc2ccc3c(c2)CCN(C2CCN(C4CCC4)CC2)C3=O)cc1	255 to 256 °C
COc1cc(C(=O)C=Cc2ccccc2)ccc1O	61 to 64 °C
Nc1ccc2c(c1)C(=O)N(c1ccc3ccsc3c1)C2	233 to 236 °C
CC1(CN2CCN(Cc3ccccc3)C2=O)Cn2cc([N+](=O)[O-])nc2O1 (centres undefined)	180 to 181 °C
COc1cc2c(cc1C(F)(F)F)N(C(=O)Nc1ccc3c(ccn3-c3ccncc3)c1)CC2	206 to 211 °C
NS(=O)(=O)c1nc2ccc(OC(=O)c3ccccc3)cc2s1	208 to 210 °C
COc1ccccc1C(=O)c1cccc(N)c1	81 °C
CCOC(=O)c1c[nH]c2c(=O)ccc(NC(=O)CC)cc2c1=O	> 250 °C
CS(=O)(=O)Nc1ccc(C=O)cc1Oc1ccc(F)cc1F	156 to 157 °C
CCC(O)c1ccc(Cl)c2nc3n(c12)CCCN3c1c(Cl)cc(Cl)cc1Cl (centres undefined)	213 to 214 °C

SMILES	melting point
CCOC(C)n1cnc(C(N)=O)n1 (centres undefined)	163 to 166 °C
CC(C)(C)Nc1nccc(C#C[Si](C)(C)C)n1	71 to 73 °C
COc1cccc(Oc2c(NS(=O)(=O)c3ccc(C(C)(C)C)cc3)ncnc2OCCOc2ncc(Br)cn2)c1	168 °C
CCC(=O)OC[C@H]1O[C@@H]2[C@@H](Sc3ccc(Cl)cc3N2CCN(CC)CC)[C@@H](OC(=O)CC)[C@@H]1OC(=O)CC	125 to 127 °C
COC(=O)c1ccc(C(=O)N2CCN(c3ncccc3NC(C)C)CC2)cc1	116 to 118 °C
CC(C)c1ncc(O)cn1	184 °C
Cc1ccc(F)c([Si](C)(C)C)c1C#N	71 to 73 °C
CC(C)(Cc1ccc(O)cc1)NCC(O)c1cc(OCc2ccccc2)cc2c1OCC(=O)N2 (centres undefined)	255 to 258 °C
COc1cc(C=O)cc2c1OC1(C=C2Br)CCC1	128 to 129 °C
CCCCN(Cc1ccc2cc(O)ccc2c1)C(=O)c1c(C)oc2ccccc12	126 to 128 °C
CCCc1c(OCCCCCCc2ccc(C(C)(C)C)c(O)c2O)ccc(C(=O)O)c1O	85 to 87 °C
CC(=O)c1nc(C)cn1-c1cc(C)c2[nH]c(=O)ccc2c1	312 to 314 °C
N#Cc1nn(-c2c(Cl)cc(C(F)(F)F)cc2Cl)c(N)c1C#N	221 to 222 °C
COc1ccc(-c2cc(C(=O)NCCCCCCCCc3ccccc3)cc(-c3cccc(C(F)(F)F)c3)c2OCC(=O)O)cc1	139 to 144 °C
CCCCCCCCCCCCCCCCCCOCC(CBr)OCCCCCCCCCCCCCCCCCC (centres undefined)	38 to 38.8 °C
CCNC(=O)C1OC(n2cnc3c(NCC(c4ccccc4)c4ccccc4)nc(NC4CCCC4)nc32)C(O)C1O (centres undefined)	122 to 128 °C
COc1cccc(-c2nnc(-c3ccoc3)o2)c1	70 to 71 °C
COC(=O)C1(NS(=O)(=O)c2ccc3c(Cl)cnc(Cl)c3c2)CCOCC1	168 to 170 °C
CC(=O)Nc1ccc(S(=O)(=O)N2CCCCC2)cc1	137 to 139 °C
O=C(O)c1ccc2c(c1)C(C(Cl)Cl)OC(C(Cl)(Cl)Cl)O2 (centres undefined)	209 °C
CC1=Nc2ccc(C)cc2C(O)(c2ccccc2)N1N (centres undefined)	192 to 196 °C
FC(F)(F)c1cc2c(cc1Cl)C(Cl)Cc1ccccc1S2 (centres undefined)	100 to 102 °C
CCc1ccc2c(c1)C=Cc1cc(C)ccc1C2c1cn(-c2nccc(C(=O)NCC(=O)O)n2)c(=O)[nH]c1=O (centres undefined)	195 to 198 °C
Cc1noc(-c2cccc(C3=Nc4ccc(-c5ccc(F)cc5)cc4NC(=O)C3)c2)n1	266 to 268 °C

Next, values leading:

melting point	SMILES
108 to 110 °C	CC(Cc1cccnc1)NC(=O)[C@@H]1C[C@H](C)CC[C@H]1C(C)C (some centres undefined)
99 to 103 °C	C/C=C/C(=O)OC(COc1ccc(C(=O)c2ccccc2)c(O)c1)COc1ccc(C(=O)c2ccccc2)c(O)c1
54 to 56 °C	CCc1nc2c(s1)CC(COS(=O)(=O)c1ccc(C)cc1)CC2 (centres undefined)
132 to 133 °C	CNC(=S)Nc1cc(SC)ccc1N1CCOCC1
177 to 179 °C	CCOCc1nc2c(N)nc3ccccc3c2n1NCCCNC(=O)Nc1ccccc1
147 to 148 °C	O=C(O)C(=O)N1CCC(Cc2ccc(Cl)cc2)CC1
148 to 150 °C	Cc1ccc(C)n1-c1cccc(C(=O)O)c1
177 to 179 °C	COc1cc2c(cc1OC)C(=O)C(C#N)C2 (centres undefined)
171 to 175 °C	COc1c(O)cc(C(C)(C)C)c(O)c1C(=O)Nc1ccc(S(=O)(=O)C(F)(F)F)cc1Cl
167 to 170 °C	Cc1ccc(C2=NC(C)(C(C)C)C(=S)N2)cc1 (centres undefined)
73 to 75 °C	CN(CCC=C1c2ccccc2COc2ccccc21)CCCCCC(O)c1ccc(C(C)(C)C)cc1 (centres undefined)
260 to 262 °C	O=C(Nc1ccccc1)C1=C(O)c2ccc3ccccc3c2S(=O)(=O)N1
167 to 169 °C	O=Cc1ccc(NCc2ccc(F)cc2)cn1
> 300 °C	Cc1nc(=O)c(O)c(-c2ccc(Cc3ccc(F)cc3)cn2)[nH]1
159 to 160 °C	CCOC(=O)c1c(NCC(=O)c2ccc(C(F)(F)F)cc2)c2c(Cl)cc(Cl)cc2n1C(=O)OC(C)(C)C
91 to 92.5 °C	CCCN1CC(C)=C(C)C2=C1N1CN(OC)C=C1C=N2
146 to 147 °C	c1ccc2c(c1)CC(CCN1CCN(c3cccc4[nH]ccc34)CC1)C2
188 to 190 °C	O=C(NCc1ccc(Cl)cc1)c1noc2ccc(I)cc2c1=O
102 to 104 °C	NC(C=Cc1ccc(Cl)cc1)=NO
188 to 189 °C	O=C(O)COc1ccc2c(-c3ccccc3F)noc2c1Cl
200 to 202 °C	CCn1ccc(=O)c2cnc(-c3ccncc3)nc21
> 275 °C	N=C(N)c1ccc(N2CCN(c3ccc(CCC(=O)O)cc3)S2(=O)=O)cc1
162 °C	O=S(=O)(Nc1ccc(Cl)cc1I)c1ccc2ncsc2c1
100 to 102 °C	C=Cc1c(NCc2ccco2)nc(-c2ccc(Cl)c(OC)c2F)nc1C(=O)OC
66 to 69 °C	CN1CCC(Oc2ccc(C#N)cc2C(F)(F)F)CC1
205 to 209 °C	CC(C)(C)OC(=O)Nc1ccc(-c2ncn(-c3ccc(OC(F)(F)C(F)(F)F)cc3)n2)cc1

melting point	SMILES
199 °C	COC(=S)NC[C@H]1CN(c2cc(F)c(N3CNC(=O)C3)c(F)c2)C(=O)O1
100 to 104 °C	O=C(c1ccccc1)N1CCN(CCCN2C(=O)c3ccccc3C2=O)CC1
91 to 92 °C	O=C(O)CCCCC(=NOCc1ccc(OCc2nc(-c3ccccc3)no2)cc1)c1ccccc1
121 to 124 °C	Cc1cc(C)cc(C(=O)N2CC[C@H](NCc3ccnc4ccccc34)C[C@H]2Cc2ccc(Cl)c(Cl)c2)c1 (relative stereo)
96 °C	c1ccc(COc2ccc(OCC3CC3)cc2)cc1
58 to 60 °C	CC(CCCC1(C(=O)NCC(F)(F)F)c2ccccc2-c2ccccc21)N1CCC(NC(=O)OC(C)(C)C)CC1 (centres undefined)
80 to 81 °C	CN(C)CCC(=O)Nc1cccc([N+](=O)[O-])c1
113 to 116 °C	COc1ccc2c(c1)CCC1C2CCC2(C)C(=O)C=C(C(C)C)C12 (centres undefined)
120 to 122 °C	COc1cc(Oc2cccc(C(F)(F)F)c2)nc(C(=O)NO)c1
234 to 237 °C	O=[N+]([O-])c1ccc2nc3c(nc2c1)OCC1CCCN31 (centres undefined)
91 to 93 °C	CCCc1nc(Cl)c(-c2ccc(C)cc2)c(Cl)n1
207 to 208 °C	Cc1c(NC(=O)c2ccc(OCC3CC3)cc2)ccc2[nH]c(CNC3CCCC3)cc12
148 to 150 °C	COc1ccc(Cl)cc1C(=O)c1cc(C(F)(F)F)ccc1NC(=O)OC(C)(C)C
116 to 118 °C	COc1nc(N)nc(C(C)C)n1
157 to 158 °C	O=C(O)CNC(=O)c1c(Cl)cc(N2C(=O)N3CCCC3(Cc3ccc(Br)cc3)C2=O)cc1Cl (centres undefined)
210 to 212 °C	COc1cc(O)ccc1C=CC(=O)c1ccc(O)cc1
252 to 254 °C	O=c1c(Cc2ccccc2)c(O)c2cccc3c2n1C(c1ccccc1)C3 (centres undefined)
225 to 227 °C	S=C1CC2Cc3ccc(Cl)cc3C2N1 (centres undefined)
202 to 204 °C	O=C1N(Cc2nc3ncccc3o2)c2ccccc2C12COc1cc3c(cc12)OCO3 (centres undefined)
88 to 95 °C	COc1cc(C2CCN(CC(N)=O)CC2)ccc1Nc1ncc2ccc(-c3ccccc3OC)n2n1
220 to 221 °C	O=S(=O)(NC1CC1)c1ccc(Nc2nc(OCC3CCCCC3)c3nc[nH]c3n2)cc1
145 to 149 °C	CS(=O)(=O)Nc1cc(OCCC(=O)O)ccc1Oc1ccccc1
95 to 99 °C	Cc1cc(F)ccc1-c1nc(OCC(N)S(C)(=O)=O)nc2c1ccc(=O)n2-c1c(F)cccc1F (centres undefined)
135 to 136 °C	O=C(Cc1ccc(Cl)cc1)c1cccc(S(=O)(=O)N2CCCCCC2)c1
135 to 137 °C	COc1ccc2sc(C(=O)NCCCCC(=O)O)c(OC(C)C)c2c1
